Laboratory results: patent publication US20260109672A1, “SARS-COV-2 MPRO INHIBITORS AND USES THEREOF” (NXERA PHARMA UK LIMITED, priority 2022, published 2026)

Key:
[1] = biological target: T1, SARS-CoV-2 Mpro (Severe acute respiratory syndrome coronavirus 2, UniProt P0DTD1); test: SARS-CoV-2 Mpro enzyme assay (FRET); assay type: biochemical; conditions: 20 nM Mpro, 30 min preincubation at 30° C., mean n=2, read-out: SARS-CoV-2 Mpro enzyme pKi assay pKi (converted)
[2] = system: P-glycoprotein (P-gp, MDR1); test: MDCK-MDR1 permeability and P-gp substrate assay; assay type: in vitro ADME, canine; conditions: dog, pH 7.4, MDCK-MDR1, apical to basolateral, without P-gp inhibitor
Method: Permeability and drug efflux of certain example compounds was investigated using the following assay.
Test compound was added to either the apical side of a confluent monolayer of MDCK-MDR1 (Madin-Darby canine kidney cells stably transfected to express active P-glycoprotein) and permeability was measured by monitoring the appearance of the test compound on the basolateral side of the monolayer using LC-MS/MS. Experiments were performed in the absence and presence of a P-glycoprotein (P-gp) inhibitor elacridar (2 μM) to determine whether the compound was subject to P-gp mediated efflux.
MDCK-MDR1 cells obtained from the NIH (Rockville, MD, USA) were used between passage numbers 6-30. […]
For assessment of A-B permeability, HBSS was removed from the apical compartment and replaced with test compound dosing solution or test compound plus P-gp inhibitor dosing solutions. […] Test compound permeability was assessed in duplicate. […]
Test and control compounds were quantified by LC-MS/MS cassette analysis using a 7-point calibration with appropriate dilution of the samples. The starting concentration (C0) was determined from the dosing solution and the experimental recovery calculated from C0 and both apical and basolateral compartment concentrations.
The permeability coefficient (Papp) for each compound in the absence and presence of a P-gp inhibitor was calculated from the following equation: […]

[3] = biological target: T1, SARS-CoV-2 Mpro; test: Modified SARS-CoV-2 Mpro enzyme assay (FRET, kinetic read) for reference examples; assay type: biochemical; conditions: 5 nM Mpro, 20 min preincubation at room temperature, mean n=2, set out in PCT/GB2022/050836, read-out: SARS-CoV-2 Mpro enzyme pKi assay pKi (converted)
[4] = Pedersen et al.; cited from earlier work
[5] = system: SARS-CoV-2 infection; conditions: approved in selected countries for limited use; Zhou et al.; cited from earlier work
[6] = system: ten further coronavirus strains; conditions: read-out: Ki values against ten further coronavirus strains; cited from earlier work
[7] = system: live virus; conditions: cited from earlier work

Compound | Ki [1] [nM] | other results
CC(C)(C)[C@H](NC(=O)C(F)(F)F)C(=O)N1C[C@H]2[C@@H]([C@H]1C(=O)NC(C[C@@H]1CCNC1=O)C(=O)C(=O)NC1CC1)C2(C)C (stereo partly drawn) [Example 1, (1R,2S,5S)-N-(4-(cyclopropylamino)-3,4-dioxo-1-((S)-2-oxopyrrolidin-3-yl)butan-2-yl)-3-((S)-3,3-dimethyl-2-(2,2,2-trifluoroacetamido)butanoyl)-6,6-dimethyl-3-azabicyclo[3.1.0]hexane-2-carboxamide] | 3.98 | Papp A→B at 60 min, 1 μM [2]: 0.9 ×10⁻⁶ cm/s
CNC(=O)C(=O)C(CC1CC1)NC(=O)[C@@H]1[C@@H]2[C@H](CN1C(=O)[C@@H](NC(=O)C(F)(F)F)C(C)(C)C)C2(C)C (stereo partly drawn) [Example 2, (1R,2S,5S)-N-[1-(cyclopropylmethyl)-3-(methylamino)-2,3-dioxo-propyl]-3-[(2S)-3,3-dimethyl-2-[(2,2,2-trifluoroacetyl)amino]butanoyl]-6,6-dimethyl-3-azabicyclo[3.1.0]hexane-2-carboxamide] | 20 | Papp A→B at 60 min, 1 μM [2]: 2.2 ×10⁻⁶ cm/s
CC(C)[C@H](NC(=O)C(F)(F)F)C(=O)N1C[C@H]2[C@@H]([C@H]1C(=O)NC(CC1CC1)C(=O)C(N)=O)C2(C)C (stereo partly drawn) [Example 3, (1R,2S,5S)-N-[3-amino-1-(cyclopropylmethyl)-2,3-dioxo-propyl]-6,6-dimethyl-3-[(2S)-3-methyl-2-[(2,2,2-trifluoroacetyl)amino]butanoyl]-3-azabicyclo[3.1.0]hexane-2-carboxamide] | 63.1 | –
CC(C)(C)[C@H](NC(=O)C(F)(F)F)C(=O)N1C[C@H]2[C@@H]([C@H]1C(=O)NC(CC1CCC1)C(=O)C(N)=O)C2(C)C (stereo partly drawn) [Example 4, (1R,2S,5S)-N-[3-amino-1-(cyclobutylmethyl)-2,3-dioxo-propyl]-3-[(2S)-3,3-dimethyl-2-[(2,2,2-trifluoroacetyl)amino]butanoyl]-6,6-dimethyl-3-azabicyclo[3.1.0]hexane-2-carboxamide] | 79.4 | –
CC(C)C(=O)N[C@H](C(=O)N1C[C@H]2[C@@H]([C@H]1C(=O)NC(C[C@@H]1CCNC1=O)C(=O)C(=O)NC1CC1)C2(C)C)C(C)(C)C (some centres unmarked) [Example 5] | 15.8 | –
CC(C)(C)[C@H](NC(=O)C(F)(F)F)C(=O)N1C[C@H]2[C@@H]([C@H]1C(=O)NC(C[C@H]1CCCNC1=O)C(=O)C(=O)NC1CC1)C2(C)C (stereo partly drawn) [Example 6, (1R,2S,5S)-N-[3-(cyclopropylamino)-2,3-dioxo-1-[[(3R)-2-oxo-3-piperidyl]methyl]propyl]-3-[(2S)-3,3-dimethyl-2-[(2,2,2-trifluoroacetyl)amino]butanoyl]-6,6-dimethyl-3-azabicyclo[3.1.0]hexane-2-carboxamide] | 10 | –
CC1(C)[C@@H]2[C@@H](C(=O)NC(C[C@@H]3CCNC3=O)C(=O)C(=O)NC3CC3)N(C(=O)/C=C/c3ccc(F)cc3F)C[C@@H]21 (stereo partly drawn) [Example 7, (1R,2S,5S)-N-(4-(cyclopropylamino)-3,4-dioxo-1-((S)-2-oxopyrrolidin-3-yl)butan-2-yl)-3-((E)-3-(2,4-difluorophenyl)acryloyl)-6,6-dimethyl-3-azabicyclo[3.1.0]hexane-2-carboxamide] | 63.1 | –
CC(C)C(=O)N[C@H](C(=O)N1C[C@H]2[C@@H]([C@H]1C(=O)NC(CC1CC1)C(=O)C(=O)C#N)C2(C)C)C(C)(C)C (some centres unmarked) [Example 27] | – | Ki [3]: > 5010 nM
CC(C)C[C@H](NC(=O)OCc1ccccc1)C(=O)N[C@@H](C[C@@H]1CCNC1=O)C(O)S(=O)(=O)[O-].[Na+] (some centres unmarked) [GC376] | – | Side effects in trials performed in cats [4]: side effects
NC(=O)c1nc(F)c[nH]c1=O [favipiravir] | – | Effect in treatment of SARS-CoV-2 infection [5]: modest effects
PF-00835231 | – | Ki [6]: 0.03 to 4 nM; Activity in cell-based live virus assays [7]: ~1 µM
